Measured values published in patent US20090215028A1, “Methods and Compositions for Determining Anti-HIV Drug Susceptibility and Replication Capacity of HIV” (priority 2005, published 2009).

Tests used:
Type in all cases: cell-based
[1] = tested on: HIV isolated from treatment-naïve patients (RHIN segment); assay: Anti-HIV drug susceptibility assay (luciferase test vectors, 293 cells), patient-derived RHIN segment
Excerpt: (§1) Patient-derived segment(s) corresponding to either the entire pol gene, encoding HIV protease, reverse transcriptase, integrase, and RNAse H (hereinafter “POL”), or the portion of pol encoding amino acids 319-440 of reverse transcriptase, integrase, and RNAse H (hereinafter “RHIN”), were amplified by the reverse transcription-polymerase chain reaction method (RT-PCR) using viral RNA isolated from viral particles present in the plasma or serum of HIV-infected individuals as follows. Virus was pelleted by centrifugation at 20,400×g for 60 min from plasma (typically, 1 ml) prepared from blood samples collected in evacuated tubes containing either EDTA, acid-citrate dextrose, or heparin as an anticoagulant. Virus particles were disrupted by resuspending the pellets in 200 μl of lysis buffer (4 M guanidine thiocyanate, 0.1 M Tris HCl [pH 8.0], 0.5% sodium lauryl sarcosine, 1% dithiothreitol). RNA was extracted from viral lysates by using oligo(dT) linked to magnetic beads (Dynal, Oslo, Norway). Reverse transcription was performed with Superscript III (Invitrogen) at 50 degrees for 1 hour using primer 1.
From the resultant cDNA either POL or RHIN sequences were amplified using the Advantage High Fidelity PCR kit (BD Biosciences; Clontech). POL amplification products are made using forward Primer 3 containing an ApaI site and reverse Primer 4 containing a Xho 1 site. RHIN amplification products are made using forward Primer 2 containing a PINA1 site and reverse Primer 4 containing a Xho 1 site.
A retroviral vector designed to measure antiretroviral drug susceptibility was constructed by using an infectious molecular clone of HIV-1. The vector, referred to herein as an indicator gene viral vector (IGVV), is replication defective and contains a luciferase expression cassette inserted within a deleted region of the envelope (env) gene. The IGVV is described in U.S. Pat. No. 5,837,464 (International Publication Number WO 97/27319) which is hereby incorporated by reference in its entirety. […]

[2] = tested on: HIV isolated from treatment-naïve patients (POL segment); assay: Anti-HIV drug susceptibility assay (luciferase test vectors, 293 cells), patient-derived POL segment; conditions: 30 clinical isolates from treatment-naïve patients, FIG. 5
Excerpt: as §1
From the resultant cDNA either POL or RHIN sequences were amplified using the Advantage High Fidelity PCR kit (BD Biosciences; Clontech). POL amplification products are made using forward Primer 3 containing an ApaI site and reverse Primer 4 containing a Xho 1 site. […]

[3] = tested on: HIV mutants comprising site-directed mutations in integrase; assay: Anti-HIV drug susceptibility assay (luciferase test vectors, 293 cells), site-directed integrase mutants; conditions: FIG. 2
Excerpt: A retroviral vector designed to measure antiretroviral drug susceptibility was constructed by using an infectious molecular clone of HIV-1. The vector, referred to herein as an indicator gene viral vector (IGVV), is replication defective and contains a luciferase expression cassette inserted within a deleted region of the envelope (env) gene. The IGVV is described in U.S. Pat. No. 5,837,464 (International Publication Number WO 97/27319) which is hereby incorporated by reference in its entirety. This retroviral vector was further modified to allow insertion of either the entire pol gene (POL) or the portion of pol encoding amino acids 319-440 of reverse transcriptase, the RNase H portion of reverse transcriptase, and integrase (RHIN) by engineering an Xho1 restriction enzyme recognition site into vif. Prior to doing this, an Xho 1 site in nef was deleted. Test vectors (TVs) were constructed by incorporating amplified POL or RHIN into the IGVV by using ApaI and Xho1 or PinAI and Xho1 restriction sites respectively. TVs were prepared as libraries (pools) in order to capture and preserve the pol or RHN sequence heterogeneity of the virus in the patient. […]
Susceptibility tests were carried out with the TV libraries by using viral particles comprising the RTV libraries to infect a host cell in which the expression of the indicator gene is measured. The amount of indicator gene (luciferase) activity detected in infected cells is used as a direct measure of “infectivity,” i.e., the ability of the virus to complete a single round of replication. Thus, drug resistance or sensitivity can be determined by plotting the amount of luciferase activity produced by patient derived viruses in the presence of varying concentrations of the antiviral drug. By identifying the concentration of drug at which luciferase activity is half-maximum, the IC50 of the virus from which patient-derived segment(s) were obtained for the antiretroviral agent can be determined. […]

[4] = 30 clinical isolates from treatment-naïve patients, RHIN segment, FIG. 5

## O=C(NCc1ccc(F)cc1)c1nc(N2CCCCS2(=O)=O)c2cccnc2c1O [L-870,810]
[1]; [4]
  mean fold change (FC) in IC50: 0.86
  median fold change (FC) in IC50: 0.82
[1]; RHIN sequences from 45 treatment-naïve patient viruses, FIG. 4
  mean fold change (FC) in IC50 relative to HIV strain IIIb: 0.83
[2]
  mean fold change (FC) in IC50: 0.85
  median fold change (FC) in IC50: 0.85
[3]; site-directed integrase mutant N155S
  susceptibility (IC50 relative to HIV strain IIIB): reduced susceptibility
[3]; site-directed integrase mutant V72I/F121Y/T125K
  susceptibility (IC50 relative to HIV strain IIIB): reduced susceptibility
[3]; site-directed integrase mutant
  susceptibility (IC50 relative to HIV strain IIIB): reduced susceptibility
